According to patent US7407940B2, “Antimicrobial hexapeptides” (Helix BioMedix Inc., priority 2005, dated 2008):
Where a SMILES comes first, the peptide text is derived from it. Where no end group is shown, it is not given here. The star is where a group is joined. Undecanoyl = CCCCCCCCCCC(=O)*; Octanoyl = CCCCCCCC(=O)*

Experiments:
[1] = Systemic toxicity, tail vein injection; assay type: in vivo; details: mouse, IV, 20 mg/kg
[2] = test system: Pseudomonas aeruginosa; assay type: cell-based; set-up: MIC, lipid length SAR: unit not given here; details: P.aeruginosa
Method in brief: (§1)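 Read-out is visible turbidity: the MIC is the lowest drug concentration keeping wells clear at 35° C, after 16 to 20 hours for bacteria and 46 to 50 hours for Candida. Cells were seeded at 2×10^5–7×10^5 CFU/ml (bacteria) or 2×10^3–7×10^3 CFU/ml (Candida) in NCCLS-recommended medium.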

[3] = test system: Salmonella typhimurium 14028S; experiment: MIC, broth microdilution, S. typhimurium; assay type: cell-based; set-up: unit not given here; details: S.typhimurium
Method in brief: as §1

[4] = test system: S. aureus; experiment: Kill curve in 80% serum, S. aureus; assay type: cell-based
Source text: It should be noted that in addition to MIC data, the lipo-hexapeptides can also be distinguished by their ability to kill bacteria in the presence of biological constituents such as serum. […] This activity, an indicator of therapeutic potential, is not obvious from the MIC data alone.

[5] = test system: MRSA; experiment: Kill curve in 10% sheep serum-phosphate buffer against MRSA; assay type: cell-based, S. aureus; details: 10% serum / biological environments
[6] = test system: C. albicans; experiment: Kill curve in vaginal simulant, C. albicans; assay type: cell-based; details: FIG. 2
Source text: (§2) An additional embodiment of the invention is directed towards methods of treating sexually transmitted diseases (STDs). Many of the fungal species responsible for STDs are likely to be inhibited or killed by application of one or more of the inventive hexapeptides of Table 1. Examples of such species include C. albicans, C. glabrata, and C. tropicalis. The inventive hexapeptide/s may additionally be used against other agents responsible for STDs including viruses and bacteria. The hexapeptide/s can be administered to an STD patient by any acceptable method, such as topical, oral, or systemic delivery. The hexapeptide/s can be administered in a single dose, in multiple doses, or as a continuous delivery. The hexapeptide/s can be administered in any acceptable form, such as a cream, gel, or liquid. An indication of the likelihood of activity of the hexapeptides of the present invention in the vaginal environment is shown in FIG. 2, where the activity of SEQ ID NO:55 is shown in killing curves against C. Albicans and S. aureus.

[7] = test system: S. aureus; experiment: Kill curve in vaginal simulant, S. aureus; assay type: cell-based; details: FIG. 2
Source text: as §2

[8] = test system: P. aeruginosa; assay type: cell-based; details: drug resistant P. aeruginosa
Method: (§3) The fractional inhibitory concentration (FIC) index was used to determine the synergy between antimicrobial agents. Peptide MICs against test microorganisms were determined three times on separate occasions. […]

[9] = test system: azole resistant strains of C. albicans; assay type: cell-based; details: azole resistant strains of C. albicans
Method: as §3
All strains are azole resistant clinical isolates from Prof. Ted White (Seattle Biotechnology Research Institute, Seattle)

[10] = set-up: species or system Sprague-Dawley rats; details: rat, in vivo
Source text: Each wound observed at each dressing change and the wound surface and tissue reaction assessed. There were 5 parameters of wound status that were checked: • i. Wound Film Security—Was the adhesive film used to cover the wound still completely adherent to the skin around the wound? • ii. Wound Surface—What was the exact visual appearance of the wound surface? • iii. Amount of Exudate—How much exudate was trapped under the film? In many cases, accumulated exudate causes the film to lose adherence and the exudates will escape. • iv. Severity of Tissue Reaction—A subjective rating of extent of tissue reaction on a scale of 1 (minimal), 2 (moderate), 3 (extensive). • v. % of Tissue Involved—In some situations, the wound surface contained denatures, friable tissue that could be wiped off with pressure applied to gauze. This test was used to better differentiate denatured tissue from viscous exudates.

[11] = test system: Lipoteichoic acid (LTA); experiment: LTA binding assay; details: FIG. 7
Source text: Lipoteichoic acid (LTA) is a common cell wall component of gram-positive bacteria including organisms such as S. aureus and P. acnes. The release of LTA during infection can lead to the release of mediators of the host inflammatory response which in turn can result in sepsis (septic shock). For example, when injected into animals, LTA can elicit many of the characteristic features of septic shock, including cytokine production, leukocytopenia, circulatory failure, multiple-organ dysfunction syndrome, and mortality.

[12] = test system: Trychophyton rubrum; experiment: MIC100 against dermatophyte Trychophyton rubrum; assay type: cell-based; details: T. rubrum; 125 ppm, day ten
Method: (§4) In order to compare the activity of various antimicrobial peptides, including hexapeptide SEQ ID NO:1 (P0666), MIC were determined against the dermatophytes Trychophyton rubrum and Trychophyton mentagrophytes. The concentration of samples investigated were: 2000, 1000, 500, 250 and 125 μg/ml, respectively. The medium used was modified Sabouraud's media without agar. For a 100 mL of modified Sabouraud medium: 3 g of Sabouraud's dextrose broth (Difco) was mixed into 100 mL of deionized water. The pH was adjusted to 7.0 with 0.1 N NaOH. The solution was autoclaved for thirty minutes. 940 μL of medium was poured into sterile 20 mL test tubes with plastic caps and was allowed to cool.
(§5) 50 μL of […] was added to each 20 mL test tube to make the required concentration. A control tube was composed of 50 μL of saline without sample. For the MIC experiments,
(§6) 10 μL of organism suspended in saline was added to the each 20 mL test tube and vortexed slightly. Each of the test tubes was covered in parafilm and maintained on a shaker at 27° C. at a speed of approximately 100 rpm.
(§7) The growth/inhibition of the organism was observed on a daily basis. […] The Minimum Inhibition Concentration (MIC100) for compounds F1 to F10 against fungus Trychophyton rubrum and Trychophyton mentagrophytes at 10 days.

[13] = test system: Trychophyton mentagrophytes; experiment: MIC100 against dermatophyte Trychophyton mentagrophytes; assay type: cell-based; details: T. mentagrophytes; 125 ppm, day ten
Method: as §4, §5, §6, §7

For KYKKALKKLAKLL-NH2 [SEQ ID NO:92], the “Result (systemic toxicity)” value ([1]; solvent ringers) was 3/3 dead.
For “Und-KFKWPW-NH2 (Undecanoyl-KFKWPW-NH2; SMILES CCCCCCCCCCC(=O)N[C@@H](CCCCN)C(=O)N[C@@H](Cc1ccccc1)C(=O)N[C@@H](CCCCN)C(=O)N[C@@H](Cc1c[nH]c2ccccc12)C(=O)N1CCC[C@H]1C(=O)N[C@@H](Cc1c[nH]c2ccccc12)C(N)=O) [SEQ ID NO: 79]”, the “MIC, lipid length SAR” value [2] was 8-16, the “MIC, lipid length SAR” value [3] was 8-16 and the “killing of S. aureus in 80% serum (in words)” value [4] was “perform very well”.
For CCCCCCCC(=O)N[C@@H](CCCCN)C(=O)N[C@@H](Cc1ccccc1)C(=O)N[C@@H](CCCCN)C(=O)N[C@@H](Cc1c[nH]c2ccccc12)C(=O)N1CCC[C@H]1C(=O)N[C@@H](Cc1c[nH]c2ccccc12)C(N)=O [SEQ ID NO:55] (Octanoyl-KFKWPW-NH2), the “ability to kill S. aureus in serum (in words)” value [5] was “increased ability”, the “killing in vaginal simulant (in words)” value [6] was “killing” and the “killing in vaginal simulant (in words)” value [7] was “killing”. The “synergy with polymyxin B (in words)” value [8] was “displayed synergistic activity”, the “synergy with clotrimazole (in words)” value [9] was “exhibits synergy” and the “tissue reaction (in words)” value [10] was “mild”. The “LTA binding (in words)” value [11] was “fail to bind LTA”.
In the case of KFKWPW-NH2 [SEQ ID NO:1], the “Result (systemic toxicity)” value ([1]; solvent water) is reported as “did not elicit systemic toxicity”, the growth of organism [12] is reported as “only a slight growth” and the growth of organism [13] is reported as “only a slight growth”.
